# Literature values, collected in patent US20030162781A1, “Vehicle for applying chemical compounds on wood” (priority 2001, published 2003).
# Details: water as carrier
smiles,measurement,value
O [Water],wood penetration,scarcely penetrates the wood
